Where “and” joins values, the source holds several entries; their conditions need not be identical. Equal entries are not always repeated. Where two headings read alike, the source gives them in different places.
Assays:
[1] = humans; reported; cited from earlier work
in vivo = conditions: female, mongrel, dog, 7 mg; for AUC(0-t): AUC0-10 min; for bioavailability: F, based on venous AUCinf
Protocol: The objective of this study was to determine the concentration of prochlorperazine in dog plasma processed from whole blood taken from both the left ventricle and venous circulation immediately following administration of prochlorperazine aerosol to the animal by way of the thermal aerosol generation process described herein, during a single deep inhalation.
This study consisted of four young adult, female, mongrel dogs. The animals were treated with the test article, prochlorperazine (PCZ), in three separate surgical/dosing sessions. In sessions 1 and 3, the test article was administered intravenously (IV), either via a 120-second infusion (Session 1) or as a five-second bolus (Session 3). In session 2, the test article was administered using a thermal aerosol generation process, during a single deep inhalation. Following treatment in each surgical/dosing session, blood samples were collected from the left ventricle and from a peripheral vein for bioanalysis. Left ventricular and venous plasma samples were obtained prior to drug administration. In addition, left ventricular plasma samples were obtained every five seconds during the first 30 seconds following drug administration, as well as frequently thereafter, with the last left ventricular sample collected 10 minutes following drug administration. Venous plasma samples were obtained from 15 seconds to 24 hours following drug administration. Clinical observations and body weights were recorded for all animals at specified time points.
The animals were treated in three separate surgical/dosing sessions. For each session, the animals were appropriately anesthetized prior to administration of the test article. Each surgical/dosing session was separated by a washout period of approximately 48 hours from the time of the previous treatment administration.
Session 1: While the animals were anesthetized, the test article (1.4 mL of 5 mg/mL prochloperazine edisylate injection) was administered as a 120-second intravenous (IV) manual infusion via a saphenous vein. Blood sampling commenced at the time of initiation of infusion (t=0).
Session 2: While the animals were anesthetized, an aerosol generation and administration system was connected in-line to an endotracheal tube to allow for delivery of the aerosol test article (prochlorperazine coated on a chemical, single dose heat package). The aerosol resulting from actuation of the prochlorperazine by the aerosol generation and administration system was administered during a single deep inhalation. Blood sampling commenced at the time of initiation of the deep inhalation (t=0).
Session 3: While the animals were anesthetized, the test article (1.4 mL of 5 mg/mL prochloperazine edisylate injection) was administered as a five-second IV bolus via a saphenous vein. Blood sampling commenced at the time of initiation of the bolus (t=0).
Each animal was premedicated with atropine sulfate (0.02 mg/kg, intramuscularly) and acepromazine (0.2 mg/kg, IM, to a maximum dose of 3 mg) prior to induction of anesthesia. At least 10 minutes later, the animal was anesthetized with Propofol(4-8 mg/kg, intravenously). The animal was then intubated and maintained in anesthesia with isoflurane inhalant anesthetic, delivered through a volume-regulated ventilator. An intravenous catheter was placed in a peripheral vessel for administration of lactated Ringer's solution during the procedure at a rate of approximately 5 mL/kg/hr.
A midline incision was made in the neck and one of the carotid arteries was exposed. The artery was mobilized a distance of about 5 cm and two Vessel-Loops® were placed around it, proximally and distally.

[2] = Clinical observations and body weights after prochlorperazine administration in dogs; assay type: in vivo; conditions: dog
[3] = Clinical observations and body weights after alprazolam administration in dogs; assay type: in vivo; conditions: dog
Protocol: (§1) This study consisted of five young adult, female, mongrel dogs. Four animals per session were treated with the test article, alprazolam, in two separate surgical/dosing sessions. In Session 1 the test article was administered intravenously (IV) as a 5-second bolus. […] The animals were dosed at a level of 0.7 mg of alprazolam in both dosing sessions.

[4] = Pharmacokinetics of aerosolized alprazolam in dog (left ventricular and venous plasma) vs IV bolus; assay type: in vivo; conditions: for AUC(0-t) / bioavailability / Cmax / Tmax / AUC / half-life: female, mongrel, 0.7 mg; for AUC(0-t): venous plasma; for Tmax: median
Protocol: as §1
Four animals per session were treated with the test article, alprazolam, in two separate surgical/dosing sessions. The animals were dosed at a level of 0.7 mg of alprazolam in both dosing sessions.
Anesthesia was performed substantially as described in Example 1.
Whole blood samples were centrifuged. […] All plasma samples were stored until analyzed. […] Plasma samples were mixed with spiking solutions of alprazolam, α-hydroxyalprazolam, 4-hydroxyalprazolam and an internal standard (alprazolam-d5). […] Drug or metabolite concentrations were calculated by comparing (drug or metabolite)/internal standard ratios to standard curves prepared in dog plasma.
Individual plasma concentration-time data from four animals, two sampling sites, and two dose routes were analyzed by noncompartmental pharmacokinetic methods via WinNonlin using nominal time points. Areas were calculated using the linear trapezoidal rule.

[5] = left ventricular plasma, inhaled or intranasal, dog left ventricular plasma, aerosol inhalation
[6] = left ventricular plasma, iv, dog left ventricular plasma, 2-min IV infusion
[7] = left ventricular plasma, iv, dog left ventricular plasma, IV bolus
[8] = venous plasma, iv, dog venous plasma, 2-min IV infusion
[9] = venous plasma, iv, dog venous plasma, IV bolus
[10] = dog left ventricular plasma, IV bolus
[11] = dog venous plasma, 7 mg, 2-min IV infusion
[12] = dog venous plasma, 7 mg, IV bolus
[13] = dog venous plasma, 7 mg, aerosol inhalation
[14] = inhaled or intranasal, dog left ventricular plasma, aerosol inhalation
[15] = inhaled or intranasal, dog venous plasma, aerosol inhalation

## CN1CCN(CCCN2c3ccccc3Sc3ccc(Cl)cc32)CC1 [PCZ, prochlorperazine]
[1]
  oral bioavailability: 12.5%
In vivo; left ventricular and venous plasma, iv, dog left ventricular and venous plasma, 2-minute IV infusion
  Tmax: 1.25 to 3 min
In vivo; [5]
  AUC(0-t): 89.1 ± 13.7 ng·h/mL
  Cmax: 3260 ± 975 ng/mL
  Tmax: 0.33 min
In vivo; [6]
  AUC(0-t): 88.5 ± 25.7 ng·h/mL
  Cmax: 1360 ± 396 ng/mL
  Tmax: 1.9 min
In vivo; [7]
  AUC(0-t): 98.3 ± 15 ng·h/mL
  Cmax: 3480 ± 767 ng/mL
  Tmax: 0.5 min
In vivo; venous plasma, inhaled or intranasal, dog venous plasma, thermal aerosol single deep inhalation, mean ± SD
  Cmax: 886 ± 268 ng/mL
In vivo; venous plasma, inhaled or intranasal, Half-Life, dog venous plasma, aerosol inhalation
  half-life: 76.2 ± 17.4 min
In vivo; venous plasma, inhaled or intranasal, dog venous plasma, aerosol inhalation
  Tmax: 1 min
In vivo; venous plasma, inhaled, aerosol bioavailability to IV bolus, 7 mg aerosol vs IV bolus
  bioavailability: 82%
In vivo; venous plasma, inhaled, aerosol bioavailability to IV infusion, 7 mg aerosol vs 2-min IV infusion
  bioavailability: 109%
In vivo; venous plasma, intravenous, inhaled, mean clearances, dog venous, span over the three groups
  clearance: 18.9 to 24.8 mL/min/kg
In vivo; venous plasma, intravenous, inhaled, mean half-lives, dog venous, span over the three groups
  half-life: 76.2 to 105 min
In vivo; venous plasma, iv, CL, dog venous plasma, 2-min IV infusion
  clearance: 24.8 mL/min/kg
In vivo; venous plasma, iv, CL, dog venous plasma, IV bolus
  clearance: 18.9 ± 3.6 mL/min/kg
In vivo; venous plasma, iv, dog venous plasma, 2-min IV infusion, mean ± SD
  Cmax: 442 ± 270 ng/mL
In vivo; venous plasma, iv, dog venous plasma, 5-second IV bolus, mean ± SD
  Cmax: 1300 ± 1260 ng/mL
In vivo; venous plasma, iv, Half-Life, dog venous plasma, 2-min IV infusion
  half-life: 105 ± 9.6 min
In vivo; venous plasma, iv, Half-Life, dog venous plasma, IV bolus
  half-life: 82.2 ± 6 min
In vivo; [8]
  Tmax: 2.5 min
  Vd: 3.8 L/kg
In vivo; [9]
  Tmax: 1.1 min
  Vd: 2.3 ± 0.6 L/kg
Dog left ventricular plasma, 7 mg, 2-min IV infusion
  Cmax: 1365.3 ± 396.2 ng/mL
Dog left ventricular plasma, 7 mg, IV bolus
  Cmax: 3481.8 ± 787.2 ng/mL
Dog left ventricular plasma, 7 mg, aerosol inhalation
  Cmax: 3261.5 ± 974.8 ng/mL
Dog left ventricular plasma, 7 mg, aerosol inhalation, listed as prochlorperazine
  Cmax: 3261 ng/mL
[10]
  time of maximum left ventricular concentration: 30 s
Dog left ventricular plasma, aerosol inhalation
  time of maximum left ventricular concentration: 20 s
[11]
  AUC0-10 min: 32.2 ± 21.1 ng·h/mL
  AUCinf: 229.9 ± 35.7 ng·h/mL
  Tlast: 8.0 ± 0.0 h
Dog venous plasma, 7 mg, 2-min IV infusion, mean ± SD
  Cmax: 441.8 ± 269.9 ng/mL
[12]
  AUC0-10 min: 63.4 ± 15.7 ng·h/mL
  AUCinf: 305.1 ± 59.3 ng·h/mL
  Tlast: 8.0 ± 0.0 h
[13]
  AUC0-10 min: 56.5 ± 10.6 ng·h/mL
  AUCinf: 250.4 ± 58.2 ng·h/mL
  Tlast: 6.0 ± 2.3 h
  Vd: 2.6 ± 1.1 L/kg
Dog venous plasma, 7 mg, thermal aerosol single deep inhalation, mean ± SD
  Cmax: 886.5 ± 268.3 ng/mL
dog, 2-minute IV infusion
  mean maximum concentration, left ventricular plasma relative to venous plasma: approximately 3 fold
  venous plasma concentration at time points after 8 hr (undetectable levels): < 2 ng/mL
dog, aerosol and IV bolus treatments
  peak concentration in left ventricular plasma relative to 2-minute IV infusion: approximately 2.5 fold
dog, based on venous AUCinf, 7 mg aerosol vs 2-min IV infusion
  F, aerosol bioavailability to IV infusion: 108.7±19% and 108.9 ± 19.2%
dog, based on venous AUCinf, 7 mg aerosol vs IV bolus
  F, aerosol bioavailability to IV bolus: 82.1 ± 13.1%
dog, left ventricular Cmax aerosol divided by Cmax 2-min IV infusion
  (ventricular) spike index for inhalation: 2.4
[2]; 7 mg IV infusion, aerosol, IV bolus sessions
  adverse effects by clinical observations: no adverse effects
[2]; all animals
  body weights between treatment sessions: maintained

## Cc1nnc2n1-c1ccc(Cl)cc1C(c1ccccc1)=NC2 [alprazolam]
[3]
  body weight change between treatment sessions: no remarkable change
[3]; 0.7 mg IV bolus and aerosol sessions
  adverse effects by clinical observations: no adverse effects
[4]; dog left ventricle plasma, all cases
  last time concentrations measurable (last sampling time): 10 min
[4]; dog venous plasma, IV dosing
  median time through which concentrations were measurable: 240 min
[4]; dog venous plasma, inhalation dosing
  median time through which concentrations were measurable: 360 min
[4]; dog, both routes of administration
  mean Cmax for left ventricle plasma relative to venous plasma: ~7 fold
[4]; dog, left ventricle and venous plasma
  mean Cmax after inhalation as percentage of values after intravenous dosing: approximately 70%
[4]; dog, left ventricle sampling
  bioavailability based upon mean AUC (n=4) by each route: 81.5%
[4]; dog, systemic plasma
  bioavailability based upon mean AUC (n=4) by each route: 94.9%
[4]; dog, inhaled or intranasal, dog venous plasma, aerosol inhalation, read-out: AUC0-240 (converted)
  AUC(0-t): 38.3 ng·h/mL
[4]; dog, inhaled or intranasal, dog venous plasma, aerosol inhalation, read-out: AUClast (converted)
  AUC(0-t): 43.3 ng·h/mL
[4]; dog, iv, dog venous plasma, IV bolus, read-out: AUC0-240 (converted)
  AUC(0-t): 42.3 ng·h/mL
[4]; dog, iv, dog venous plasma, IV bolus, read-out: AUClast (converted)
  AUC(0-t): 45.3 ng·h/mL
[4]; inhaled or intranasal, dog, based on AUC for venous plasma, n=3, read-out: F, mean bioavailability for inhalation administration
  bioavailability: 95.5%
[4]; [14]
  Cmax: 676 ± 99.5 ng/mL
  Tmax: 0.25 min
[4]; [15]
  AUC: 49.7 ng·h/mL
  Tmax: 0.5 min
[4]; inhaled or intranasal, dog venous plasma, aerosol inhalation, mean ± SD, n=4
  Cmax: 102 ± 57.2 ng/mL
[4]; inhaled or intranasal, dog venous plasma, aerosol inhalation, read-out: Half-Life
  half-life: 115 ± 12.9 min
[4]; intravenous, inhaled, dog venous plasma, both routes, read-out: mean terminal elimination half-life
  half-life: ~110 min
[4]; left ventricular plasma, inhaled or intranasal, dog, based on AUC for left ventricle plasma, three animals, read-out: mean bioavailability for inhalation administration
  bioavailability: 85%
[4]; left ventricular plasma, intravenous, inhaled, dog left ventricle plasma, both routes, read-out: mean terminal elimination half-life
  half-life: ~4 min
[4]; [10]
  Cmax: 967 ± 303 ng/mL
  Tmax: 0.42 min
[4]; dog venous plasma, 5-second IV bolus, mean ± SD, n=4
  Cmax: 147 ± 93.5 ng/mL
[4]; dog venous plasma, IV bolus
  AUC: 52.3 ng·h/mL
  Tmax: 0.75 min
[4]; dog venous plasma, IV bolus, read-out: Half-Life
  half-life: 106 ± 22 min

From patent US20060120962A1, “Cardiac safe, rapid medication delivery” (priority 2004, published 2006)
